Source: patent US7045502B2, “Use of melagatran for the manufacture of a medicament for the treatment of Type 1 diabetes mellitus” (AstraZeneca AB, priority 2002, dated 2006)
“Also recorded” adds a separate entry of the source.

Legend:
[1] = tested on: human islets; experiment: Immunohistochemical staining of human islets after perfusion in the tubing loop model; type: cell-based; conditions: 10 μM melagatran
Source text: (§1) A modification of the model previously described was used (see Bennet et al, Diabetes, 48, 1907 (1999), Gong et al, J. Clin. Immunol., 16, 222 (1996) and Larsson et al, Immunophamnacology, 38, 119 (1997)). This device consisted of loops made of PVC (diameter, 6.3 mm; length, 390 mm) whose inner surface was furnished with immobilized heparin. The tubing was held together with a specially designed heparinized connector. A circular loop was formed when the ends of the connector were tightly pushed into the lumen of the tubing ends. A rocking apparatus, placed in a 37° C. incubator, was used to generate blood flow inside the loops. The loops were rocked at a setting that prevented the blood from coming into contact with the connectors. Up to twelve devices could be rocked at the same time. Ten 60-min islet experiments were performed, with islets isolated from five different donors. Melagatran (Astraeneca R&D Mölndal, Sweden), dissolved in 5 mM citrate buffer containing 0.15 M NaCl, pH 5.5, was tested at 0, 0.4 μM, 1 μM, 4 μM, and 10 μM. For each experiment, two loops of fresh human blood without islets, one containing CMRL 1066 (GibcoRBL, USA) and one containing 10 μM melagatran, were included as controls. Fresh ABO-compatible human blood from the same donor (5 mL) was added to each loop. The loops were placed on the rocking device for a 10-min preincubation with melagatran or citrate buffer. Thereafter, the loops were opened, and 150 μL of CMRL 1066, with or without 4 μL of islets (approximately 4,000 IEQ), was added to the loops, followed by another 60-min incubation on the rocking device at 37° C. Blood glucose levels were measured with a glucometer (Glucometer Elite; Bayer Diagnostics, Leverkusen, Germany) before the perfusion. After every perfusion the loop contents were filtered through 70 μm-diameter filters (Filcons, Cuptype; DAKO, Denmark). Both macroscopic blood clots and tissue recovered on the filters were frozen in liquid nitrogen for immunohistochemical staining. For immunohistochemical comparison, non-perfused islets were also frozen and stained by the same procedure. […]

[2] = tested on: complement system; experiment: Activation of complement in serum in wells of microtiter plates; type: biochemical; conditions: human serum, no islets, 0 to 10 μM, 30 min, 37° C.
Method: The direct effect of melagatran on the complement system was studied using a method in which serum was incubated in the wells of microtiter plates (Nilsson et al, Mol. Immunol., 30, 211 (1993)). Serum (100 μL) was added to each well of a 96-well microtiter plate together with melagatran at a final concentration of 0, 0.4, 1, 4, or 10 μM. After a 30-min incubation at 37° C., the serum was transferred to tubes containing EDTA (final concentration, 10 mM). These samples were stored at −70° C. before analysis of the complement fragment C3a (see below). In order to detect bound C3 fragments, the wells of the microtiter plates were washed with PBS containing 0.05% (v/v) TWEEN 20 and incubated with 100 μL of horseradish peroxidase (HRP)-conjugated anti-C3c (DAKO. AS, Glostrup, Denmark) for 60 min at 37° C. The binding of antibody was detected by the addition of 1,2-phenylendiamine dihydrochloride (Fluka, Switzerland), and the staining was monitored at 492 nm.
EDTA-plasma was analyzed as previously described (Nilsson Ekdahl et al, Scand. J. Immunol., 35, 85 (1992)). Monoclonal antibody 4SD17.3 was used as capture antibody. Bound C3a was detected with biotinylated polyclonal anti-C3a followed by HRP-conjugated streptavidin (Amersham, Buckinghamshire, UK). Zymosan-activated serum, calibrated against a solution of purified C3a, served as a standard, and the values are given as ng/mL.

[3] = tested on: human islets in ABO-compatible blood (IBMIR); experiment: Tubing loop model: human islets perfused with fresh ABO-compatible human blood (IBMIR); type: cell-based
Source text: (§2) Pancreases were obtained from cadaver donors after consent was obtained either from the organ donor registry or from relatives. The organs were obtained from three female and two male normoglycemic donors (aged 59–85 years, three with blood group 0 and two with blood group A). The islets were isolated at the Division for Clinical Immunology at the University of Uppsala using a modification of previously described semiautomated digestion-filtration methods (Brandhorst et al, Cell Transplant., 7, 489 (1998) and Ricordi et al, Diabetes, 37, 413 (1988)). This isolation procedure was followed by further purification on a continuous density gradient in a refrigerated COBE 2991 centrifuge (COBE Blood Component Technology, Lakewood, Colo., USA). The islets were placed in untreated culture flasks and maintained in suspension culture at 37° C. (5% CO2) for. 1 to 5 days. The culture medium (CMRL 1066; ICN Biomedicals, Costa Mesa, Calif.) was changed every other day. The volume and purity of the islets were determined by microscopic sizing on a grid after staining with diphenylthiocarbazone. The purity of the islet preparations used in this study ranged from 40% and 95% (70±6.3%) (amount of endocrine compared to exocrine/duct tissue in the preparation; mean ±SD). Viability was assessed in terms of insulin secretion in response to a glucose challenge in a dynamic perfusion system (in 1.67 mmol/L glucose, then in 16.7 mmol/L, and finally back to 1.67 mmol/L).
All materials that came in contact with whole blood were furnished with a Corline heparin surface (Corline, Uppsala, Sweden) according to the manufacturer's recommendation (see J. Clin. Immunol., 16, 222 (1996)). The surface concentration of heparin was 0.5 μg/cm^2, corresponding to approximately 0.1 U/cm^2, with an antithrombin binding capacity of 2–4 pmol/cm^2.
Fresh human blood, obtained from healthy volunteers who had received no medication for at least 14 days, was collected in surface-heparinized 60-mL syringes (18 gauge, Microlance; Becton Dickinson, Franklin Lakes, N.J.). The cannulae of the syringes were connected to surface-heparinized-silicon tubing. During sampling, the syringes were rotated continuously.
as §1, with “perfusion.” for “perfusion. After every perfusion the loop contents were filtered through 70 μm-diameter filters (Filcons, Cuptype; DAKO, Denmark). Both macroscopic blood clots and tissue recovered on the filters were frozen in liquid nitrogen for immunohistochemical staining. For immunohistochemical comparison, non-perfused islets were also frozen and stained by the same procedure.”

[4] = tested on: human islets; experiment: Islet perfusion system (islet function, insulin secretion); type: cell-based; conditions: 10 μM melagatran
Source text: as §2, with “The purity of the islet preparations used in this study ranged from 40% and 95% (70±6.3%) (amount of endocrine compared to exocrine/duct tissue in the preparation; mean ±SD).” left out, “mmol/L). […]” for “mmol/L).”

[5] = islets, 10 μM melagatran, 60 min perifusion with ABO-compatible blood, mean ± SEM, n=10
[6] = islets, 10 μM melagatran, 60 min perifusion with ABO-compatible blood, plasma, mean ± SEM, n=10

## N=C(N)c1ccc(CNC(=O)[C@@H]2CCN2C(=O)[C@H](NCC(=O)O)C2CCCCC2)cc1 [melagatran, HOOC—CH2—(R)Cgl-Aze-Pab-H]
[1]; 60 min perfusion with fresh human blood
  Clot formation around islets: no signs of clot formation
[1]; 60 min perfusion, anti-CD11b staining
  CD11b+ cells penetrated into the islets: only a few
[1]; 60 min perfusion, anti-CD41a staining
  CD41+ platelets surrounding the islet surface: almost no
[2]
  Binding of C3 fragments to the polystyrene surface: no effect
  Generation of C3a: no effect
[3]; 4 μM melagatran, FIG. 1B
  FXIa-AT versus medium control: decreased to nearly the same level as the medium control
  TAT versus medium control: decreased to nearly the same level as the medium control
[3]; 0.4 to 10 μM, 60 min
  Cell consumption and cascade system activation: diminished cell consumption and cascade system activation in a dose-dependent manner
[3]; at ≧4 μM, FIG. 1A
  Release of β-TG: normalized
[3]; compared with 4 μM needed for TAT and FXIa-AT, FIG. 1B
  Inhibition of prothrombin fragment 1+2 formation: required higher doses
[3]; in vitro
  Inhibition of IBMIR (overall): almost completely inhibits IBMIR; also recorded: abrogated IBMIR
[3]; [5]
  Granulocytes: 3.7 ± 0.3 ×10^9/L
  Lymphocytes: 2.0 ± 0.1 ×10^9/L
  Monocytes: 0.6 ± 0.1 ×10^9/L
  Platelets: 170 ± 8.2 ×10^9/L
[3]; [6]
  C3a: 510 ± 50 ng/mL
  FXIa-AT: 0.9 ± 0.6 µmol/L
  Insulin: 1500 ± 350 mU/L
  Prothrombin F1 + 2: 110 ± 28 nmol/L
  TAT: 890 ± 160 µg/L
  sC5b-9: 140 ± 17.0 AU/mL
  β-TG: 1300 ± 200 IU/mL
[3]; tubing loop with islets, 0 to 10 μM, FIG. 2
  Complement activation product C3a: inhibited
[3]; tubing loop, 60 min
  Concentration at which an effect on most parameters was already observed: 0.4 µM
[3]; tubing loop, 60 min, FIGS. 1A, 1C
  Concentration at which cell counts were fully restored: ≥ 4 µM
[4]
  Insulin release on perfusion of islets: did not induce insulin release
[4]; glucose 16.7 mmol/L
  Subsequent glucose stimulation of islets: normal
